The text below walks through data of patent publication US20160016944A1, “FUNGICIDAL 3--HETEROCYCLE DERIVATIVES” (priority 2013, published 2016).

Data set [1] concerns Phytophthora infestans. It is filed as in vivo. The following applies: tomato plants, preventive spray, 500 ppm active ingredient, evaluated 5 days after inoculation.
A short description of data set [2]: logP by HPLC on reversed phase columns (EEC directive 79/831 Annex V.A8). Conditions: for chromatographic logP: pH 2.7; for LogP: method [a]: HPLC/LC-MS at pH 2.7, 0.1% formic acid in water / acetonitrile gradient, Table 1.
Method: (§2) Calibration was done with not branched alkan2-ones (with 3 to 16 carbon atoms) with known log P-values (measurement of log P values using retention times with linear interpolation between successive alkanones). lambda-maX-values were determined using UV-spectra from 200 nm to 400 nm and the peak values of the chromatographic signals.
Data set [3] relates to Pyrenophora teres. The experiment in a line: In vivo preventive test on Pyrenophora teres (net blotch on barley). Conditions: barley plants, preventive spray, 500 ppm active ingredient, evaluated 14 days after inoculation. As for the experimental part: (§1) The tested active ingredients are prepared by homogenization in a mixture of acetone/Dimethyl sulfoxide/Tween®, and then diluted with water to obtain the desired active material concentration.
The young plants of barley are treated by spraying the active ingredient prepared as described above. Control plants are treated only with an aqueous solution of acetone/Dimethyl sulfoxide/Tween®.
After 24 hours, the plants are contaminated by spraying the leaves with an aqueous suspension of Pyrenophora teres spores. The contaminated barley plants are incubated for 48 hours at 20° C. and at 100% relative humidity and then for 12 days at 20° C. and at 70-80% relative humidity.
The test is evaluated 14 days after the inoculation. 0% means an efficacy which corresponds to that of the control plants while an efficacy of 100% means that no disease is observed.

For data set [4] the following is noted: pH 2.7.
Method: as §2
For data set [5], the system named is Botrytis cinerea. The data set can be described thus: In vivo preventive test on Botrytis cinerea (grey mould). Conditions: gherkin plants, preventive spray, 500 ppm active ingredient, evaluated 4 to 5 days after inoculation. As for the experimental part: as §1
The young plants of gherkin are treated by spraying the active ingredient prepared as described above. Control plants are treated only with an aqueous solution of acetone/Dimethyl sulfoxide/Tween®.
After 24 hours, the plants are contaminated by spraying the leaves with an aqueous suspension of Botrytis cinerea spores. The contaminated gherkin plants are incubated for 4 to 5 days at 17° C. and at 90% relative humidity.
The test is evaluated 4 to 5 days after the inoculation. 0% means an efficacy which corresponds to that of the control plants while an efficacy of 100% means that no disease is observed.

Data set [6] has as its system Plasmopara viticola. The data set can be described thus: Plasmopara test (grapevines) / preventive. It counts as in vivo. The following applies: grapevine young plants, preventive spray, 10 ppm active ingredient, evaluated 6 days after inoculation. As for the experimental part:
To produce a suitable preparation of active compound, 1 part by weight of active compound is mixed with the stated amounts of solvent and emulsifier, and the concentrate is diluted with water to the desired concentration.
To test for preventive activity, young plants are sprayed with the preparation of active compound at the stated rate of application. After the spray coating has dried on, the plants are inoculated with an aqueous spore suspension of Plasmopara viticola and then remain for 1 day in an incubation cabinet at approximately 20° C. and a relative atmospheric humidity of 100%. The plant is subsequently placed for 4 days in a greenhouse at approximately 21° C. and a relative atmospheric humidity of approximately 90%. The plants are then misted and placed for 1 day in an incubation cabinet.
The test is evaluated 6 days after the inoculation. 0% means an efficacy which corresponds to that of the untreated control, while an efficacy of 100% means that no disease is observed.

Read-outs that look alike come from different tables or passages of the source. Marks after values point to notes of the source that are not given here.

For `Cn1c(/C(=N\OCc2cccc(NC(=O)OC(C)(C)C)n2)c2ccccc2)noc1=S` [Example 1, tert-butyl {6-[({[(Z)-(4-methyl-5-thioxo-4,5-dihydro-1,2,4-oxadiazol-3-yl)(phenyl)methylene]amino}oxy)methyl]pyridin-2-yl}carbamate], the “% efficacy” value in data set [1] worked out at 97%. In addition, the chromatographic logP in data set [2] came to 4.66.

Take `C#CCCOC(=O)Nc1cccc(CO/N=C(/c2ccccc2)c2noc(=S)n2C)n1` [Example 2, but-3-yn-1-yl {6-[({[(Z)-(4-methyl-5-thioxo-4,5-dihydro-1,2,4-oxadiazol-3-yl)(phenyl)methylene]amino}oxy)methyl]pyridin-2-yl}carbamate]: in data set [1], the “% efficacy” value turned out to be 93%. The chromatographic logP in data set [2] turned out to be 3.87.

On to `C#CCC(C)(C)OC(=O)Nc1cccc(CON=C(c2ccccc2)c2noc(=S)n2C)n1` [Example 3], for which the “% efficacy” value in data set [1] is listed as 93%. In addition, the LogP in data set [2] is 4.54^[a].

In the case of `Cn1c(C(=NOCc2cccc(NC(=O)OCc3ccccc3)n2)c2ccccc2)noc1=S` [Example 4], the LogP in data set [2] is 4.58^[a].

Regarding `CCCCCOC(=O)Nc1cccc(CON=C(c2ccccc2)c2noc(=S)n2C)n1` [Example 5], the “% efficacy” value in data set [1] is 80%. Further, the LogP in data set [2] is 5.05^[a].

In the case of `CCCCC(=O)Nc1cccc(CON=C(c2ccccc2)c2noc(=S)n2C)n1` [Example 6], the “% efficacy” value is listed as 99% in data set [1] and 96% in data set [3]. Besides, in data set [4], the LogP was 4.18^[a].

For the compound `Cn1c(/C(=N\OCc2cccc(N)n2)c2ccccc2)noc1=S` [Example 7, 3-[(Z)-{[(6-aminopyridin-2-yl)methoxy]imino}(phenyl)methyl]-4-methyl-1,2,4-oxadiazole-5(4H)-thione], in data set [1], the “% efficacy” value is 99%. The chromatographic logP in data set [2] was determined as 1.59.

On to `Cn1oc(=S)nc1C(=NOCc1csc(NC(=O)OCCc2ccccc2)n1)c1ccccc1` [Example 8], for which, in data set [1], the “% efficacy” value was found to be 79%. For the same compound, the LogP in data set [2] is 3.76^[a].

Consider `C#CCCOC(=O)Nc1nc(CON=C(c2ccccc2)c2nc(=S)on2C)cs1` [Example 9], for which the “% efficacy” value in data set [1] was found to be 89%. Also, the LogP in data set [2] was 2.96^[a].

As for `Cn1oc(=S)nc1C(=NOCc1csc(NC(=O)COc2ccccc2)n1)c1ccccc1` [Example 10], the figures for the “% efficacy” value in data set [1] and in data set [5] were 84% and 74%, respectively. Moreover, in data set [4], the LogP was 3.31^[a].

Turning to `Cn1oc(=S)nc1C(=NOCc1csc(NC(=O)C2COc3ccccc3O2)n1)c1ccccc1` (centres unmarked) [Example 11], the “% efficacy” value in data set [1] is on record as 76%; in data set [6] it was 82%. In data set [4], the LogP is 3.50^[a].

Regarding `Cn1oc(=S)nc1C(=NOCc1csc(NC(=O)OC2CC3CCC2C3)n1)c1ccccc1` (centres unmarked) [Example 12], the LogP in data set [2] is 4.06^[a].

Regarding `CCCCCCCC(=O)Nc1nc(CON=C(c2ccccc2)c2nc(=S)on2C)cs1` [Example 13], in data set [1], the “% efficacy” value worked out at 98%. Further, the LogP in data set [2] is 4.39^[a].

As to `Cn1oc(=S)nc1C(=NOCc1csc(NC(=O)C2(C)CC2)n1)c1ccccc1` [Example 15], the figures for the “% efficacy” value in data set [1] and in data set [5] were 99% and 95%, respectively. In addition, the LogP in data set [4] was 3.11^[a].

For `CCCCCC(=O)Nc1nc(CON=C(c2ccccc2)c2nc(=S)on2C)cs1` [Example 16], the “% efficacy” value is recorded as 76% in data set [1] and 95% in data set [5]. Further, the LogP in data set [4] is 3.63^[a].

As for `C#CCCCCOC(=O)Nc1nc(CON=C(c2ccccc2)c2nc(=S)on2C)cs1` [Example 17], the “% efficacy” value in data set [1] is listed as 100%. Moreover, the LogP in data set [2] was 3.44^[a].

Consider `CCC(C)SC(=O)Nc1nc(CON=C(c2ccccc2)c2nc(=S)on2C)cs1` (centres unmarked) [Example 18], for which the “% efficacy” value in data set [1] stood at 83%. For the same compound, the LogP in data set [2] was 3.90^[a].

Turning to `C#CCCOC(=O)Nc1cccc(CON=C(c2ccccc2)c2nc(=NC#N)on2C)n1` [Example 19], the LogP in data set [2] is 3.13^[a].

In the case of `Cn1oc(=S)nc1/C(=N\OCc1csc(N)n1)c1ccccc1` [Example 20, 3-[(Z)-{[(2-amino-1,3-thiazol-4-yl)methoxy]imino}(phenyl)methyl]-2-methyl-1,2,4-oxadiazole-5(2H)-thione], in data set [2], the chromatographic logP is 1.53.

For `Cn1oc(=S)nc1C(=NOCc1csc(NC(=O)C(C)(C)C)n1)c1ccccc1` [Example 21], the LogP in data set [2] is 3.31^[a].

Consider `C#CCC(C)OC(=O)Nc1nc(CON=C(c2ccccc2)c2nc(=S)on2C)cs1` (centres unmarked) [Example 22], for which the “% efficacy” value in data set [1] is 74%. The LogP in data set [2] is 3.23^[a].

`Cn1oc(=S)nc1C(=NOCc1csc(NC(=O)c2ccccc2)n1)c1ccccc1` [Example 23]: the “% efficacy” value is given as 71% in data set [1] and 99% in data set [5]. Further, the LogP in data set [2] is 3.31^[a].

Regarding `CCCCCCC(=O)Nc1nc(CON=C(c2ccccc2)c2nc(=S)on2C)cs1` [Example 24], the “% efficacy” value in data set [1] is 79%; in data set [5], 84%. Besides, the LogP in data set [4] was 3.99^[a].

In the case of `C#CCCC(C)OC(=O)Nc1nc(CON=C(c2ccccc2)c2nc(=S)on2C)cs1` (centres unmarked) [Example 25], the LogP in data set [2] is 3.41^[a].

Regarding `C#CCCOC(=O)Nc1cccc(CON=C(c2ccccc2)c2nc(=S)on2C)n1` [Example 26], the LogP in data set [2] is 3.15^[a].

Turning to `Cn1oc(=S)nc1C(=NOCc1csc(NC(=O)OCCOc2ccccc2)n1)c1ccccc1` [Example 27], the “% efficacy” value in data set [1] came to 90%. The LogP in data set [2] was 4.18^[a].

In the case of `CN1C(C(=NOCc2cccc(NC(=O)OC(C)(C)C)n2)c2ccccc2)=NOS1=O` (centres unmarked) [Example 28], the LogP in data set [2] is 4.18^[a].

`C#CCCCOC(=O)Nc1nc(CON=C(c2ccccc2)c2nc(=S)on2C)cs1` [Example 29]: in data set [5], the “% efficacy” value was 71%. Besides, the LogP in data set [4] is 3.19^[a].

For `Cn1oc(=S)nc1/C(=N\OCc1csc(NC(=O)OC(C)(C)C)n1)c1ccccc1` [Example 30, tert-butyl {4-[({[(Z)-(2-methyl-5-thioxo-2,5-dihydro-1,2,4-oxadiazol-3-yl)(phenyl)methylene]amino}oxy)methyl]-1,3-thiazol-2-yl}carbamate], the “% efficacy” value in data set [1] was found to be 100%; in data set [3], 86%; in data set [6] it was 79%. The compound also displayed a chromatographic logP in data set [2] of 3.53.

Turning to `CC(COc1ccccc1)OC(=O)Nc1nc(CON=C(c2ccccc2)c2nc(=S)on2C)cs1` (centres unmarked) [Example 31], the LogP in data set [2] was 4.44^[a].

`CCCCC(CC)COC(=O)Nc1nc(CON=C(c2ccccc2)c2nc(=S)on2C)cs1` (centres unmarked) [Example 32]: the LogP in data set [2] was 5.55^[a].

In data set [2], `CNC(=N\O)/C(=N\OCc1cccc(NC(=O)OC(C)(C)C)n1)c1ccccc1` [VIII-1, tert-butyl {6-[({[(1Z,2Z)-2-(hydroxyimino)-2-(methylamino)-1-phenylethylidene]amino}oxy)methyl]pyridin-2-yl}carbamate] showed a chromatographic logP of 2.6.

A word on the chromatographic logP: it is lipophilicity estimated from chromatographic retention. A lower chromatographic logP goes with a more hydrophilic compound.
